Source: patent publication US8507489B2, “Bicyclic triazoles as protein kinase modulators” (SGX Pharmaceuticals, Inc., priority 2006, dated 2013)
Where a name gives a salt, the structure may show the parent alone.

Columns and labels:
[1] = molecular target: c-MET (Homo sapiens, UniProt P08581); experiment: MET luminescence-based enzyme assay (Kinase-Glo); format: biochemical
Method: The subscript designates positive or negative controls. The Z′ score for a robust screening assay should be ≧0.50. The typical threshold=μ+−3*σ+. Any value that falls below the threshold was designated a “hit”.
MET Luminescence-Based Enzyme Assay
MET kinase (see below), Kinase-Glo™ (Promega Cat#V6712).
Negative controls contained 10 μM staurosporine.

[2] = tested on: GTL16 cells; experiment: 96-well XTT cell survival assay (GTL16 cells); format: cell-based; settings: Homo sapiens, GTL 16, 72 hours
Method: GTL16 cells were maintained in DMEM Medium supplemented with 10% fetal bovine serum (FBS) 2 mM L-Glutamine and 100 units penicillin/100 μg streptomycin, at 37° C. in 5% CO2.
Compounds were tested in the following assays in duplicate.
96-well XTT assay (GTL16 cells): One day prior to assay the growth media was aspirated off and assay media was added to cells. On the day of the assay, the cells were grown in assay media containing various concentrations of compounds (duplicates) on a 96-well flat bottom plate for 72 hours at 37° C. in 5% CO2. The starting cell number was 5000 cells per well and volume was 120 μl. At the end of the 72-hour incubation, 40 μl of XTT labeling mixture (50:1 solution of sodium 3′-[1-(phenylaminocarbonyl)-3,4-tetrazolium]-bis (4-methoxy-6-nitro) benzene sulfonic acid hydrate and Electron-coupling reagent: PMS (N-methyl dibenzopyrazine methyl sulfate) were added to each well of the plate. After an additional 5 hours of incubation at 37° C., the absorbance reading at 450 nm with a background correction of 650 nm was measured with a spectrophotometer.

Sequence of c-MET (P08581 1078-1345 limits assumed): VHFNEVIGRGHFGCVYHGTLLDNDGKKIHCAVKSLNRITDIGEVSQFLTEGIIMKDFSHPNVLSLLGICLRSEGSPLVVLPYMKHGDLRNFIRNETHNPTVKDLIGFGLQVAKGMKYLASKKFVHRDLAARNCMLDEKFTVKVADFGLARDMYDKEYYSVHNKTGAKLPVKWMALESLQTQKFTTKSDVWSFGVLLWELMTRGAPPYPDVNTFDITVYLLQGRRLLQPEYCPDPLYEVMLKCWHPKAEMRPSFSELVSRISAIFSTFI

Row | IC50 [1] | Compound | IC50 [2]
1 | < 100 nM | c1ccc(-c2ccc3nnc(Sc4ccc5ncccc5c4)n3n2)cc1 [Compound 1, 6-(6-Phenyl-[1,2,4]triazolo[4,3-b]pyridazin-3-ylsulfanyl)-quinoline] | ≤ 100 nM
2 | < 100 nM | Fc1cccc(-c2ccc3nnc(Sc4ccc5ncccc5c4)n3n2)c1 [Compound 5, 6-[6-(3-Fluoro-phenyl)-[1,2,4]triazolo[4,3-b]pyridazin-3-ylsulfanyl]-quinoline] | ≤ 100 nM
3 | 100 to 1000 nM | Fc1cccc(-c2ccc3nnc(Sc4ccc5ncsc5c4)n3n2)c1 [Compound 6, 3-(Benzothiazol-6-ylsulfanyl)-6-(3-fluoro-phenyl)-[1,2,4]triazolo[4,3-b]pyridazine] | 100 to 1000 nM
4 | 1000 to 10000 nM | Fc1cccc(-c2ccc3nnc(Sc4ccc5nncn5c4)n3n2)c1 [Compound 7, 6-(3-Fluoro-phenyl)-3-([1,2,4]triazolo[4,3-a]pyridin-6-ylsulfanyl)-[1,2,4]triazolo[4,3-b]pyridazine] | 1000 to 10000 nM
5 | < 100 nM | Fc1cccc(-c2cnc3nnc(Sc4ccc5ncccc5c4)n3n2)c1 [Compound 9, 6-[6-(3-Fluoro-phenyl)-[1,2,4]triazolo[4,3-b][1,2,4]triazin-3-ylsulfanyl]-quinoline] | ≤ 100 nM
6 | < 100 nM | Cn1cc(-c2ccc3nnc(Sc4cc5cccnc5cc4F)n3n2)cn1 [Compound 10, 7-Fluoro-6-[6-(1-methyl-1H-pyrazol-4-yl)-[1,2,4]triazolo[4,3-b]pyridazin-3-ylsulfanyl]-quinoline] | ≤ 100 nM
7 | < 100 nM | CNC(=O)c1ccc(-c2ccc3nnc(Sc4ccc5ncccc5c4)n3n2)cc1F [Compound 11, 2-Fluoro-N-methyl-4-[3-(quinolin-6-ylsulfanyl)-[1,2,4]triazolo[4,3-b]pyridazin-6-yl]-benzamide] | 100 to 1000 nM
8 | 100 to 1000 nM | Cn1cc(-c2ccc3nnc(Sc4ccc5ncncc5c4)n3n2)cn1 [Compound 12, 6-[6-(1-Methyl-1H-pyrazol-4-yl)-[1,2,4]triazolo[4,3-b]pyridazin-3-ylsulfanyl]-quinazoline] | 100 to 1000 nM
9 | 100 to 1000 nM | Cn1cc(-c2ccc3nnc(Sc4ccc5ncccc5c4[N+](=O)[O-])n3n2)cn1 [Compound 13, 6-[6-(1-Methyl-1H-pyrazol-4-yl)-[1,2,4]triazolo[4,3-b]pyridazin-3-ylsulfanyl]-5-nitro-quinoline] | 100 to 1000 nM
10 | < 100 nM | Cn1cc(-c2ccc3nnc(Sc4ccc5ncsc5c4)n3n2)cn1 [Compound 14, 3-(Benzothiazol-6-ylsulfanyl)-6-(1-methyl-1H-pyrazol-4-yl)-[1,2,4]triazolo[4,3-b]pyridazine] | ≤ 100 nM
11 | < 100 nM | Cn1cc(-c2ccc3nnc(Sc4cc5scnc5cc4F)n3n2)cn1 [Compound 15, 3-(5-Fluoro-benzothiazol-6-ylsulfanyl)-6-(1-methyl-1H-pyrazol-4-yl)-[1,2,4]triazolo[4,3-b]pyridazine] | ≤ 100 nM
12 | < 100 nM | Cc1cc2ncccc2cc1Sc1nnc2ccc(-c3cnn(C)c3)nn12 [Compound 16, 7-Methyl-6-[6-(1-methyl-1H-pyrazol-4-yl)-[1,2,4]triazolo[4,3-b]pyridazin-3-ylsulfanyl]-quinoline] | ≤ 100 nM
13 | < 100 nM | CNC(=O)c1ccc(-c2ccc3nnc(Sc4cc5cccnc5cc4F)n3n2)cc1F [Compound 17, 2-Fluoro-4-[3-(7-fluoro-quinolin-6-ylsulfanyl)-[1,2,4]triazolo[4,3-b]pyridazin-6-yl]-N-methyl-benzamide] | ≤ 100 nM
14 | < 100 nM | CNC(=O)c1ccc(-c2ccc3nnc(Sc4cc5cccnc5cc4C)n3n2)cc1F [Compound 18, 2-Fluoro-N-methyl-4-[3-(7-methyl-quinolin-6-ylsulfanyl)-[1,2,4]triazolo[4,3-b]pyridazin-6-yl]-benzamide] | ≤ 100 nM
15 | 100 to 1000 nM | Cc1cc2cc(Sc3nnc4ccc(-c5cnn(C)c5)nn34)ccc2nc1N [Compound 24, 3-Methyl-6-[6-(1-methyl-1H-pyrazol-4-yl)-[1,2,4]triazolo[4,3-b]pyridazin-3-ylsulfanyl]-quinolin-2-ylamine] | 
16 | < 100 nM | Cn1cc(-c2ccc3nnc(Sc4ccc5ncn(C)c5c4)n3n2)cn1 [Compound 25, 3-(3-Methyl-3H-benzoimidazol-5-ylsulfanyl)-6-(1-methyl-1H-pyrazol-4-yl)-[1,2,4]triazolo[4,3-b]pyridazine] | ≤ 100 nM
17 | < 100 nM | COc1ccnc2ccc(Sc3nnc4ccc(-c5cnn(C)c5)nn34)cc12 [Compound 26, 4-Methoxy-6-[6-(1-methyl-1H-pyrazol-4-yl)-[1,2,4]triazolo[4,3-b]pyridazin-3-ylsulfanyl]-quinoline] | ≤ 100 nM

Row | IC50 [1] | Compound | IC50 [2]
18 | 1000 to 10000 nM | Cn1cc(-c2ccc3nnc(Sc4ccc5c(ccc[n+]5[O-])c4)n3n2)cn1 [Compound 27, 6-[6-(1-Methyl-1H-pyrazol-4-yl)-[1,2,4]triazolo[4,3-b]pyridazin-3-ylsulfanyl]-quinoline, N-oxide] | 
19 | 1000 to 10000 nM | CNc1ccnc2ccc(Sc3nnc4ccc(-c5cnn(C)c5)nn34)cc12 [Compound 28, Methyl-{6-[6-(1-methyl-1H-pyrazol-4-yl)-[1,2,4]triazolo[4,3-b]pyridazin-3-ylsulfanyl]-quinolin-4-yl}-amine] | 
20 | 100 to 1000 nM | CN(C)c1ccnc2ccc(Sc3nnc4ccc(-c5cnn(C)c5)nn34)cc12 [Compound 29, Dimethyl-{6-[6-(1-methyl-1H-pyrazol-4-yl)-[1,2,4]triazolo[4,3-b]pyridazin-3-ylsulfanyl]-quinolin-4-yl}-amine] | 
21 | < 100 nM | CCn1cnc2ccc(Sc3nnc4ccc(-c5cnn(C)c5)nn34)cc21 [Compound 30, 3-(3-Ethyl-3H-benzoimidazol-5-ylsulfanyl)-6-(1-methyl-1H-pyrazol-4-yl)-[1,2,4]triazolo[4,3-b]pyridazine] | ≤ 100 nM
22 | < 100 nM | COCCn1cnc2ccc(Sc3nnc4ccc(-c5cnn(C)c5)nn34)cc21 [Compound 31, 3-[3-(2-Methoxy-ethyl)-3H-benzoimidazol-5-ylsulfanyl]-6-(1-methyl-1H-pyrazol-4-yl)-[1,2,4]triazolo[4,3-b]pyridazine] | 100 to 1000 nM
23 | 100 to 1000 nM | CN(C)CCn1cnc2ccc(Sc3nnc4ccc(-c5cnn(C)c5)nn34)cc21 [Compound 32, Dimethyl-(2-{6-[6-(1-methyl-1H-pyrazol-4-yl)-[1,2,4]triazolo[4,3-b]pyridazin-3-ylsulfanyl]-benzoimidazol-1-yl}-ethyl)-amine, formic acid salt] | 1000 to 10000 nM
24 | 100 to 1000 nM | Cn1cc(-c2ccc3nnc(Sc4ccc5nccc(N)c5c4)n3n2)cn1 [Compound 34, 6-[6-(1-Methyl-1H-pyrazol-4-yl)-[1,2,4]triazolo[4,3-b]pyridazin-3-ylsulfanyl]-quinolin-4-ylamine, trifluoroacetic acid salt] | 
25 | 1000 to 10000 nM | Cn1cc(-c2ccc3nnc(Sc4ccc5nccc(NC(=O)OC(C)(C)C)c5c4)n3n2)cn1 [Compound 36, {6-[6-(1-Methyl-1H-pyrazol-4-yl)-[1,2,4]triazolo[4,3-b]pyridazin-3-ylsulfanyl]-quinolin-4-yl}-carbamic acid tert-butyl ester] | 
26 | 100 to 1000 nM | Cc1ccc2nnc(Sc3ccc4ncccc4c3)n2n1 [Compound 37, 6-(6-Methyl-[1,2,4]triazolo[4,3-b]pyridazin-3-ylsulfanyl)-quinoline] | 
27 | 100 to 1000 nM | Cc1ccc2nnc(Sc3ccc4ncc(Br)cc4c3)n2n1 [Compound 43, 3-Bromo-6-(6-methyl-[1,2,4]triazolo[4,3-b]pyridazin-3-ylsulfanyl)-quinoline] | 
28 | > 10000 nM | CNc1ccc2nnc(Sc3ccc4nccc(Sc5nnc6ccc(NC)nn56)c4c3)n2n1 [Compound 48, 4,6-{6-Methylamino-[1,2,4]triazolo[4,3-b]pyridazin-3-ylsulfanyl}-quinoline] | 
29 | > 10000 nM | CNc1ccc2nnc(Sc3ccc4ncccc4c3-c3cnn(C)c3)n2n1 [Compound 49, Methyl-{3-[5-(1-methyl-1H-pyrazol-4-yl)-quinolin-6-ylsulfanyl]-[1,2,4]triazolo[4,3-b]pyridazin-6-yl}-amine] | 
30 | 100 to 1000 nM | Cc1ccc2nnc(Sc3cc4cccnc4cc3F)n2n1 [Compound 51, 7-Fluoro-6-(6-methyl-[1,2,4]triazolo[4,3-b]pyridazin-3-ylsulfanyl)-quinoline] | 
31 | 100 to 1000 nM | Cc1cnc2ccc(Sc3nnc4ccc(C)nn34)cc2c1 [Compound 54, 3-Methyl-6-(6-methyl-[1,2,4]triazolo[4,3-b]pyridazin-3-ylsulfanyl)-quinoline] | 
32 | > 10000 nM | Cc1ccc2nnc(Sc3ccc4nccc(Sc5nncn5C)c4c3)n2n1 [Compound 57, 6-(6-Methyl-[1,2,4]triazolo[4,3-b]pyridazin-3-ylsulfanyl)-4-(4-methyl-4H-[1,2,4]triazol-3-ylsulfanyl)-quinoline] | 
33 | 1000 to 10000 nM | Methyl-{3-[4-(4-methyl-4H-[1,2,4]triazol-3-ylsulfanyl)-quinolin-6-ylsulfanyl]-[1,2,4]triazolo[4,3-b]pyridazin-6-yl}-amine (A), Methyl-{3-[6-(4-methyl-4H-[1,2,4]triazol-3-ylsulfanyl)-quinolin-4-ylsulfanyl]-[1,2,4]triazolo[4,3-b]pyridazin-6-yl}-amine (B) [Compound 47] | 
